According to patent US20230134760A1, “CAR AND NRF2 DUAL ACTIVATOR AGENTS FOR CYCLOPHOSPHAMIDE-BASED AND DOXORUBICIN-BASED TREATMENTS OF CANCER” (priority 2020, published 2023):

Assays:
cleaved caspase-3 = assay: Cleaved caspase-3 Western blot in H9c2 cardiomyocytes; format: cell-based, rat
Description: (§1) Protein was harvested using cell lysis buffer (Cell Signaling Technology, Danvers, Mass.) with a complete protease inhibitor cocktail (Roche, Mannheim, Germany) prior to homogenizing via sonification. Homogenized protein from treated HPH, H9c2, BT549, and MDA-MB-231 cells were resolved on NuPage Novex Bis-Tris 4-12% gels (Life Technologies) or NuPage Novex Bis-Tris 12% gel and transferred through electrophoresis onto immobilon-P polyvinylidene difluoride (PVDF) membranes. Membranes were blocked with 5% BSA or 5% milk in Tris-Buffer saline with Tween 20 (TBST). Further, membranes were incubated with specific antibodies against human CYP2B6 (1:1000, Abcam), CYP3A4 (1:1000, Millipore Sigma), HO-1 (1:1000, Abcam), cleaved caspase-3 (1:1000 Cell Signaling Technologies), Nrf2 (1:1000, Abcam), TATA-Binding Protein (1:500, Santa Cruz) β-actin (1:3000, Millipore Sigma) at 4° C. overnight. Following overnight incubation, horseradish peroxidase goat anti-mouse or anti-rabbit IgG antibodies were used for secondary incubation. Membranes were developed using SuperSignal West Pico Chemiluminescent Substrate (Thermo Scientific) or Radiance Q (Azure). Two TNBC cell lines, cardiomyocytes, and HPH protein samples were isolated and resolved on a 4-12% or 12% SDS PAGE gel followed by electrophoretic transfer to a PVDF membrane. Membranes were probed 1:1000 for CYP2B6, CYP3A4, Nrf2, cleaved caspase 3, and HO-1 using β-actin (1:3000) or TBP (1:500) as a loading control.

HO-1 [1] = assay: HO-1 expression in MDA-MB-231 cells; format: cell-based; conditions: MDA-MB-231, 10 μM, 24 hours
Protocol: (§2) Immortalized triple negative breast cancer cell lines MDA-MB-231 and BT549 were obtained from ATCC (Rockville, Md.). Additionally, the h9c2 cell line was purchased from ATCC (Rockville, Md.). […] Human iPSC-derived cardiomyocytes were maintained in Mtesr plus and supplemented according to protocol. These cells were treated for 2 hrs or an overnight as indicated. Following a 2 hr pretreatment, cells were co-treated with DOX at indicated concentrations for 6 or 22 hours. Following the overnight treatments, RNA or protein was isolated. HPH were seeded in collagen-coated 24 well plates and pretreated for 24 hrs. BT549 were seeded on inverted coverslips. After a 24 hr pretreatment, hepatocytes were co-administered as indicated and coverslips were inserted. The cell lines were used for less than 60 passages. After 24 h treatment, HPH, BT549, MDA-MB-231, and H9c2 cells were washed and a phenol-chloroform extraction was used to isolate total RNA with the TRIzol reagent (ThermoFisher, Rockford, Ill.). Reverse transcription was performed on extracted RNA (1 μg) to produce cDNA using the High Capacity cDNA Archive kit according to manufacturer's instructions (Applied Biosystems, Foster, Calif.). […] Quantification of expression changes was done by the 2^ΔΔCt method, normalizing to GAPDH as the housekeeping gene and determining the fold change compared to control values (n=3). […]

H9c2 cells = assay: Cell viability assay, DOX-induced toxicity in H9c2 cells; format: cell-based, rat
Protocol: (§3) H9c2 cells were seeded 0.8×10^5 in 24-well plates. Following cell attachment, a 2 h pre-treatment with vehicle control (0.1% DMSO), SFN (2.5 μM) or DL7076 (1 μM, 5 μM, or 10 μM) was done followed by doxorubicin (2.5 μM) exposure for 22 h. Co-culture cells were assembled and treated with cyclophosphamide and doxorubicin as indicated. A Cell Counting Kit-8 (Enzo) assay was carried out. Cell viability was described as a percent of vehicle control (0.1% DMSO). Cardiomyocyte, human iPSC-derived cardiomyocytes, and BT549 viability was determined with a 1 hr incubation of 6% CCK8 in WEM.

HO-1 [2] = assay: HO-1 expression in BT549 cells; format: cell-based; conditions: BT549, 10 μM, 24 hours
Protocol: as §2

HPH/BT549 coculture = assay: LC-MS/MS determination of 4-OH-CPA formation in HPH/BT549 coculture medium; format: cell-based, human; conditions: DL7076 10 μM
Protocol: During the pre-treatment time, BT549 cells were seeded at 0.8×10^5 on collagen-coated coverslips modified to have their corners bent (FIG. 40a). […] 200 μL of cell culture medium was removed from each treatment group was immediately mixed with 20 μL of semicarbazide (SCZ; 2M) to stabilize 4-OH-CPA to its derivative 4-OH-CPA-SCZ. Once removed, samples were vortexed and left at room temperature for 10 minutes. 2 μM HMP was added as an internal standard and 200 μL acetonitrile was used to precipitate protein. Mass transitions were monitored at m/z: 261-140 for CPA, m/z: 334-221 for 4-OH-CPA-SCZ, and m/z: 180-135 for HMP under the positive multiple reaction monitoring mode.

BT549 cells = assay: HPH/BT549 co-culture, CPA cytotoxicity (CCK8); format: cell-based; conditions: HPH/BT549 coculture, DL7076 10 μM + CPA
Protocol: HPH were cultured in collagen-coated 24 well plates and pre-treated with vehicle control (0.1% DMSO), CITCO (1 μM) or DL7076 (5 μM or 10 μM) for 24 h. […] Following the 24 h pre-treatment, coverslips were combined in hepatocyte seeded wells and exposed to designated concentrations of cyclophosphamide in the presence or absence of DL7076 for various time intervals, as indicated.
as §3

Nrf2 = Nrf2 expression and nuclear translocation in H9c2 cardiomyocytes (Western blot); format: cell-based, rat
Description: as §1, with “Membranes were probed 1:1000 for CYP2B6, CYP3A4, Nrf2, cleaved caspase 3, and HO-1 using β-actin (1:3000) or TBP (1:500) as a loading control.” left out

O=C(NCCN=C=S)c1c(-c2ccc3ccccc3c2)nc2sccn12 [DL7076, N-(2-Isothiocyanatoethyl)-6-(naphthalen-2-yl)imidazo[2,1-b]thiazole-5-carboxamide]
cleaved caspase-3 expression with pretreatment (cleaved caspase-3; H9c2, DL7076 pretreatment + DOX 2.5 μM): notably reduced in a concentration dependent manner | cleaved caspase-3 expression, compound alone (cleaved caspase-3; H9c2, without DOX): no expression in cleaved caspase-3 | HO-1 induction (HO-1 [1]): 1.4 fold | cytotoxicity without DOX (H9c2 cells; H9c2, 1, 5, 10 μM): no cytotoxicity | reversal of DOX-induced cardiotoxicity (viability) (H9c2 cells; H9c2, 2 h pretreatment, 22 h cotreatment with DOX 2.5 μM): concentration dependent reversal in the DOX-induced cardiotoxicity | HO-1 induction (HO-1 [2]): 1.5 fold | rate and extent of CPA biotransformation to 4-OH-CPA (HPH/BT549 coculture; coculture medium): increased rate and extent of CPA biotransformed | 4-OH-CPA formation (HPH/BT549 coculture; fixed CPA 500 μM, 2 to 24 hours): enhanced 4-OH-CPA formation in the coculture medium at all time points | CPA cytotoxicity in BT549 cells with cotreatment (BT549 cells): significantly enhanced the cytotoxicity of CPA | Nrf2 nuclear accumulation (Nrf2; nuclear extracts of H9c2, 1, 5, 10 μM): accumulating in a concentration dependent manner within the nucleus | Nrf2 expression (Nrf2; whole H9c2 cell lysates, 1, 5, 10 μM): increased Nrf2 expression in a concentration dependent manner
